Laboratory results reported in the supplement of paper PMC11061612.

Key:
[1] = system: BICR78 (Oral Cavity Carcinoma); assay: Bliss excess, mean over the matrix (fraction); higher = more synergy
In short: (§1)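 Cell lines in DMEM/F12 or RPMI with 10% FBS were plated in 1536-well plates, held 24 hours at 37°C, 5% CO2, then given two-drug dose matrices for 72 hours (DMSO typically 0.2%). Viability was read by CellTiter-Glo 2.0 luminescence and scaled as inhibition from 0 (vehicle wells) to 1 (blank wells). Combination Emax is the second-highest inhibition in the matrix; Bliss excess is observed combination effect minus expected EA + EB − EA·EB, EA and EB being single-agent effects.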

D-392MG (Glioblastoma) = assay: as above
In short: as §1

[2] = system: EFM-192A (Breast Carcinoma); assay: as above
In short: as §1

EW-22 (Ewing's Sarcoma) [3] = assay: as above
In short: as §1

[4] = system: HCC-827 (Lung Adenocarcinoma); assay: as above
In short: as §1

[5] = system: P31-FUJ (Acute Myeloid Leukemia); assay: as above
In short: as §1

[6] = system: PA-TU-8902 (Pancreatic Carcinoma); assay: as above
In short: as §1

[7] = system: RCC10RGB (Kidney Carcinoma); assay: as above
In short: as §1

[8] = system: SK-LMS-1 (Other Solid Carcinomas); assay: as above
In short: as §1

[9] = system: SK-UT-1 (Other Solid Carcinomas); assay: as above
In short: as §1

[10] = system: SW948 (Colorectal Carcinoma); assay: as above
In short: as §1

Saos-2 (Osteosarcoma) [11] = assay: as above
In short: as §1

[12] = system: TYK-nu (Ovarian Carcinoma); assay: as above
In short: as §1

[13] = system: YT (Other Blood Carcinomas); assay: as above
In short: as §1

[14] = system: 647-V (Bladder Carcinoma); assay: combination Emax (second highest fraction inhibited in the dose matrix, 72 h); higher = more inhibition; extreme values may be limits of the assay
In short: as §1

CS1 (Chondrosarcoma) = assay: as above
In short: as §1

EW-22 (Ewing's Sarcoma) [15] = assay: as above
In short: as §1

[16] = system: HOP-92 (Non-Small Cell Lung Carcinoma); assay: as above
In short: as §1

[17] = system: SW48 (Colorectal Carcinoma); assay: as above
In short: as §1

Saos-2 (Osteosarcoma) [18] = assay: as above
In short: as §1
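Throughout, for Bliss excess, mean over the matrix: after 72 h of two-drug dosing.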

SMILES | Bliss excess [1] | Bliss excess (D-392MG (Glioblastoma)) | Bliss excess [2] | Bliss excess (EW-22 (Ewing's Sarcoma) [3]) | Bliss excess [4] | Bliss excess [5] | Bliss excess [6] | Bliss excess [7] | Bliss excess [8] | Bliss excess [9] | Bliss excess [10] | Bliss excess (Saos-2 (Osteosarcoma) [11]) | Bliss excess [12] | Bliss excess [13] | combination Emax [14] | combination Emax (CS1 (Chondrosarcoma)) | combination Emax (EW-22 (Ewing's Sarcoma) [15]) | combination Emax [16] | combination Emax [17] | combination Emax (Saos-2 (Osteosarcoma) [18])
Cn1cnc2c(F)c(Nc3ccc(Br)cc3Cl)c(C(=O)NOCCO)cc21 [Selumetinib] + CC(C)n1c(=O)n(C)c2cnc3cc(F)c(-c4ccc(OCCCN5CCCCC5)nc4)cc3c21 [AZD1390] (first compound max 10 µM, 7x7, partner max 0.3 µM) | 0.0116 | -0.02 | -0.0325 | -0.0304 | -0.0306 | 0.0398 | 0.0043 | -0.0004 | -0.0429 | -0.0066 | -0.0174 | -0.0577 | -0.0523 | -0.03 | 0.154 | 0.256 | 0.128 | 0.402 | 0.38 | 0.153
Cc1cc2ncnn2cc1Nc1ncc2c(n1)n(C1CCOCC1)c(=O)n2C [AZD7648] + CCN(CCO)CCCOc1ccc2c(Nc3cc(CC(=O)Nc4cccc(F)c4)[nH]n3)ncnc2c1 [AZD2811] (first compound max 10 µM, 7x7, partner max 1 µM) | -0.0135 | -0.0108 | -0.0175 | -0.0261 | -0.0026 | -0.017 | 0.0315 | 0.0069 | -0.0162 | 0.0407 | -0.0979 | 0.0364 | 0.0625 | 0.0407 | 0.262 | 0.343 | 0.698 | 0.41 | 0.963 | 0.45
NC1(C(=O)N[C@@H](CCO)c2ccc(Cl)cc2)CCN(c2ncnc3[nH]ccc23)CC1 [Capivasertib] + CC(=O)c1c(C)c2cnc(Nc3ccc(N4CCNCC4)cn3)nc2n(C2CCCC2)c1=O [Palbociclib] (first compound max 10 µM, 7x7, partner max 10 µM) | -0.0093 | 0.0094 | -0.0334 | -0.0152 | -0.034 | -0.0807 | -0.0606 | -0.0368 | 0.0514 | -0.0009 | -0.0442 | 0.0005 | -0.0208 | -0.0344 | 0.277 | 0.442 | 0.575 | 0.466 | 0.63 | 0.407
CN(CCO)CC[C@H](CSc1ccccc1)Nc1ccc(S(=O)(=O)NC(=O)c2ccc(N3CCC([C@@H](O)c4ccccc4-c4ccc(Cl)cc4)CC3)cc2)cc1S(=O)(=O)C(F)(F)F [AZD4320] + C1CN(CCC1(C(=O)N[C@@H](CCO)C2=CC=C(C=C2)Cl)N)C3=NC=NC4=C3C=CN4 [Capivasertib] (first compound max 1 µM, 7x7, partner max 3 µM) | -0.0097 | -0.0649 | -0.0269 | -0.0341 | -0.0644 | 0.0452 | -0.0448 | -0.0576 | -0.0225 | -0.0006 | -0.0497 | 0.0035 | -0.038 | 0.0135 | 0.147 | 0.491 | 0.851 | 0.891 | 0.732 | 0.399
